Data published in US20260115336A1, “MOFS WITH BETA-EMITTERS FOR RADIOTHERAPY” (Node Pharma AS, priority 2023, published 2026).

How the values were obtained:
[1] = Retention of Lu177 in the MOF in serum, iTLC; format: in vitro ADME; details: fetal bovine serum, after 30 minutes
Procedure: (§1) Radiolabelling was performed by adding 60 kBq of [^177Lu]LuCl3 solution to a 400 μL suspension of UiO-66-(COOH)2 (0.6 mg) in 0.005 mol/L MES buffer (pH 6). A control sample consisting of 60 kBq [^177Lu]LuCl3 in 0.005 mol/L MES buffer was prepared in parallel. The samples were kept at 37° C., under agitation for 24 hours. 35 μL of each sample was dispersed in 400 μL of fetal bovine serum. After 30 minutes, both the radiolabelled-dose and the serum-dose suspensions were subjected to instant thin layer chromatography (iTLC) under the following conditions: 5 μL drops were placed on glass fiber iTLC strips, which were then placed in a TLC chamber with 20 mM sodium citrate (pH 6.5) as mobile phase. Upon completion, the application point and the top of the iTLC strip were measured separately using a Hidex gamma counter.

[2] = Lu177 radiolabelling (adsorption) of the MOF, iTLC; format: physicochemical; details: 60 kBq [177Lu]LuCl3, 0.005 mol/L MES buffer pH 6, 37° C., 24 hours
Procedure: as §1

[Cl][Lu]([Cl])[Cl] [LuCl3, [^177Lu]LuCl3]
Serum retention (retention of Lu in serum) [1]: 3%
Labelling, RCP (radiochemical purity) [2]: 1%
